US7166617B2, “Cyclic amide derivatives” (Mitsubishi Pharma Corporation, priority 2000, dated 2007)
Counter-ions that a name gives are not always drawn.

Target: T1, sigma 2 receptor (Rattus norvegicus, UniProt Q5U3Y7)
T1 construct: A crude P2 membrane fraction was prepared from livers of male rats (Sprague-Dawley rats); from tissue; host or cells: rat liver (male Sprague-Dawley), crude P2 membrane fraction
T1 sequence (Q5U3Y7 1-176): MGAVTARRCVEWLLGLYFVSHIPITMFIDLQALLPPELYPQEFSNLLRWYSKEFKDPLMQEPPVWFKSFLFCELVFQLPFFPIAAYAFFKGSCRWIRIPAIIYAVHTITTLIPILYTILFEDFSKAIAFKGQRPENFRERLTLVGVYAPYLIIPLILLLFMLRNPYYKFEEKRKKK
Experiment: Sigma 2-selective receptor binding inhibition test ([3H]-DTG, rat liver P2 membrane fraction)
Details: [3H]-DTG 1 nM, 500 nM pentazocine, P2 fraction of livers of male Sprague-Dawley rats, 25° C., 2 hours
Method: Sigma Binding Site-Binding Inhibition Test
A crude P2 membrane fraction was prepared from livers of male rats (Sprague-Dawley rats) according to a method described in the literature (X. He, et al., J. Med. Chem., 36, pp. 566–571, 1993). In the presence of 500 nM pentazocine and a control compound at various concentrations (haloperidol, 10^−10 to 10^−6 M) or a test ligand at various concentrations (10^−10 to 10^−5 M) together with a radioactive ligand, the P2 fraction (0.4 ml) was incubated in 50 mM Tris-HCl (pH 7.4, final volume: 0.5 ml) at 25° C. for 2 hours. The reaction mixture was rapidly filtered on a Brandel cell harvester using Whatman GF/B filter paper, which was immersed beforehand in 0.5% polyethyleneimine for 1 hour, to stop the reaction. The filter paper was washed 4 times with the ice cooled incubation buffer. The non-specific results were evaluated by using 1 μM haloperidol, and the scintillation analysis and the curve analysis were performed as described above.

Compound	Ki [nM]
O=C(CN1CCC(CN2Cc3ccsc3C2=O)CC1)c1ccc(F)cc1 [Example 22, 5-[[1-[2-(4-Fluorophenyl)-2-oxoethyl]piperidin-4-yl]methyl]-4,5-dihydro-6H-thieno[2,3-c]pyrrol-6-one hydrochloride]	22
O=C(CN1CCC(CN2Cc3cc(F)ccc3C2=O)CC1)c1ccc(F)cc1 [Example 154, 5-Fluoro-2-[[1-[2-(4-fluorophenyl)-2-oxoethyl]piperidin-4-yl]methyl]isoindolin-1-one hydrochloride]	16
O=C(CN1CCC(CN2Cc3ccccc3C2=O)CC1)N1CCCCC1 [Example 50, 2-[[1-[2-Oxo-2-(piperidin-1-yl)ethyl]piperidin-4-yl]methyl]isoindolin-1-one fumarate]	14
CC(C)(C)C(=O)CN1CCC(CN2Cc3ccccc3C2=O)CC1 [Example 24, 2-[[1-(3,3-Dimethyl-2-oxobutyl)piperidin-4-yl]methyl]isoindolin-1-one hydrochloride]	13
O=C(CCN1CCC(CN2Cc3ccccc3C2=O)CC1)c1ccccc1 [Example 30, 2-[[1-[3-Phenyl-3-oxopropyl]piperidin-4-yl]methyl]isoindolin-1-one hydrochloride]	22
O=C(CCCN1CCC(CN2Cc3ccccc3C2=O)CC1)c1ccc(F)cc1 [Example 31, 2-[[1-[4-(4-Fluorophenyl)-4-oxobutyl]piperidin-4-yl]methyl]isoindolin-1-one hydrochloride]	22
O=C1c2ccccc2CN1CC1CCN(CCc2c[nH]c3ccccc23)CC1 [Example 36, 2-[[1-[2-(Indol-3-yl)ethyl]piperidin-4-yl]methyl]isoindolin-1-one ½.fumarate]	50
COc1ccccc1CCN1CCC(CN2Cc3ccccc3C2=O)CC1 [Example 26, 2-[[1-[2-(2-Methoxyphenyl)ethyl]piperidin-4-yl]methyl]isoindolin-1-one hydrochloride]	10
O=C(CN1CCC(CN2Cc3cc(Br)ccc3C2=O)CC1)c1ccc(F)cc1 [Example 3, 5-Bromo-2-[[1-[2-(4-fluorophenyl)-2-oxoethyl]piperidin-4-yl]methyl]isoindolin-1-one hydrochloride]	7
O=C1c2ccc(Br)cc2CN1CC1CCN(CCc2ccc(F)cc2)CC1 [Example 160, 5-Bromo-2-[1-[2-(4-fluorophenyl)ethyl]piperidin-4-ylmethyl]isoindolin-1-one fumarate]	10
O=C(CN1CCC(CN2Cc3ccc(Br)cc3C2=O)CC1)c1ccc(F)cc1 [Example 4, 6-Bromo-2-[[1-[2-(4-fluorophenyl)-2-oxoethyl]piperidin-4-yl]methyl]isoindolin-1-one hydrochloride]	7.6
O=C(CN1CCC(CN2Cc3c(F)cccc3C2=O)CC1)c1ccc(F)cc1 [Example 6, 4-Fluoro-2-[[1-[2-(4-fluorophenyl)-2-oxoethyl]piperidin-4-yl]methyl]isoindolin-1-one hydrochloride]	8.7

The next lines start with the values.

Ki [nM]	Compound
7.8	O=C(CN1CCC(CN2CCc3ccccc3C2=O)CC1)c1ccc(F)cc1 [Example 137, 2-[[1-[2-(4-Fluorophenyl)-2-oxoethyl]piperidin-4-yl]methyl]-3,4-dihydroisoquinolin-1(2H)-one hydrochloride]
13	O=C(CN1CCC(CN2Cc3ccccc3C2=O)CC1)c1ccc(F)cc1 [Example 1, 2-[[1-[2-(4-Fluorophenyl)-2-oxoethyl]piperidin-4-yl]methyl]isoindolin-1-one hydrochloride]
6.6	O=C(CN1CCC(CN2Cc3ccccc3C2=O)CC1)c1ccccc1 [Example 13, 2-[[1-(2-Phenyl-2-oxoethyl)piperidin-4-yl]methyl]isoindolin-1-one hydrochloride]
25	COc1ccc2c(c1)CN(CC1CCN(CCc3ccc(F)cc3)CC1)C2=O [Example 159, 5-Methoxy-2-[1-[2-(4-fluorophenyl)ethyl]piperidin-4-ylmethyl]isoindolin-1-one fumarate]
4.9	COc1ccc2c(c1)CN(CC1CCN(CC(=O)c3ccc(F)cc3)CC1)C2=O [Example 9, 5-Methyloxy-2-[[1-[2-(4-fluorophenyl)-2-oxoethyl]piperidin-4-yl]methyl]isoindolin-1-one hydrochloride]
2.8	O=C(CN1CCC(CN2Cc3c(Br)cccc3C2=O)CC1)c1ccc(F)cc1 [Example 2, 4-Bromo-2-[[1-[2-(4-fluorophenyl)-2-oxoethyl]piperidin-4-yl]methyl]isoindolin-1-one hydrochloride]

Same assay, conditions: test compound 10 nM; [3H]-DTG 1 nM, 500 nM pentazocine, rat liver P2 fraction

Inhibitory rate against sigma 2 (%, 10 nM) [%]	Compound
68	COc1ccccc1SCCN1CCC(CN2Cc3ccccc3C2=O)CC1.O=C(O)/C=C/C(=O)O [Example 110]
69	Cl.O=C(CN1CCC(CN2Cc3ccccc3C2=O)CC1)c1cccn1-c1ccccc1 [Example 95, 2-[[1-[2-[2-(1-Phenyl)pyrrolyl]-2-oxoethyl]piperidin-4-yl]methyl]-isoindolin-1-one hydrochloride]

Compound	Inhibitory rate against sigma 2 (%, 10 nM) [%]
CCCCn1cccc1C(=O)CN1CCC(CN2Cc3ccccc3C2=O)CC1.Cl [Example 94, 2-[[1-[2-[2-(1-Butyl)pyrrolyl]-2-oxoethyl]piperidin-4-yl]methyl]isoindolin-1-one hydrochloride]	83

Same assay, conditions: test compound 10 nM; [3H]-DTG 1 nM, 500 nM pentazocine, rat liver P2 fraction; read-out: Inhibitory rate against sigma 2 (%, 10 nM)

Compound	inhibition at 0.01 µM [%]
O=C1c2ccccc2CN1CC1CCN(CC(O)C2CCCCC2)CC1 (stereo not shown) [Example 85, 2-[[1-(2-Cyclohexyl-2-hydroxyethyl)piperidin-4-yl]methyl]isoindolin-1-one fumarate]	59
O=C1c2cccc(F)c2CN1CC1CCN(CCOc2ccc(F)cc2)CC1 [Example 181, 4-Fluoro-2-[1-[2-(4-fluorophenoxy)ethyl]piperidin-4-ylmethyl]isoindolin-1-one fumarate]	70
O=C(CN1CCC(CN2Cc3ccccc3C2=O)CC1)N1CCCCC1 [Example 50, 2-[[1-[2-Oxo-2-(piperidin-1-yl)ethyl]piperidin-4-yl]methyl]isoindolin-1-one fumarate]	52
O=C1c2ccccc2CN1CC1CCN(CCSc2ccccc2F)CC1 [Example 112, 2-[[1-[2-(2-Fluorophenylthio)ethyl]piperidin-4-yl]methyl]isoindolin-1-one fumarate]	60
O=C1c2ccccc2CN1CC1CCN(CCSc2ccccc2)CC1 [Example 109, 2-[[1-[2-(Phenylthio)ethyl]piperidin-4-yl]methyl]isoindolin-1-one fumarate]	68
O=C1c2ccc(Br)cc2CN1CC1CCN(CCOc2ccc(F)cc2)CC1 [Example 177, 2-[1-[2-(4-Fluorophenyloxy)ethyl]piperidin-4-ylmethyl]-5-bromoisoindolin-1-one hydrochloride]	55
O=C1c2ccccc2CN1CC1CCN(CCSc2cccc(F)c2)CC1 [Example 113, 2-[[1-[2-(3-Fluorophenylthio)ethyl]piperidin-4-yl]methyl]isoindolin-1-one fumarate]	64
O=C1c2ccccc2CN1CC1CCN(CC(=O)N2CCCc3ccccc32)CC1 [Example 48, 2-[[1-[2-(1,2,3,4-Tetrahydroquinolin-1-yl)-2-oxoethyl]piperidin-4-yl]methyl]isoindolin-1-one hydrochloride]	59
COc1cccc(SCCN2CCC(CN3Cc4ccccc4C3=O)CC2)c1 [Example 111, 2-[[1-[2-(3-Methoxyphenylthio)ethyl]piperidin-4-yl]methyl]isoindolin-1-one fumarate]	51
O=C1c2ccccc2CN1CC1CCN(CCN2CCc3ccccc32)CC1 [Example 53, 2-[[1-[2-(Indolin-1-yl)ethyl]piperidin-4-yl]methyl]isoindolin-1-one fumarate]	57
O=C1c2ccccc2CN1CC1CCN(CCc2cccc3ccccc23)CC1 [Example 97, 2-[[1-[2-(1-Naphthyl)ethyl]piperidin-4-yl]methyl]isoindolin-1-one fumarate]	59
O=C1c2ccc(Cl)cc2CN1CC1CCN(CCOc2ccc(F)cc2)CC1 [Example 178, 5-Chloro-2-[1-[2-(4-fluorophenoxy)ethyl]piperidin-4-ylmethyl]isoindolin-1-one fumarate]	50

Continued, values first:

inhibition at 0.01 µM [%]	Compound
50	O=C1c2ccccc2CN1CC1CCN(CCOc2cccc(F)c2)CC1 [Example 118, 2-[[1-[2-(3-Fluorophenoxy)ethyl]piperidin-4-yl]methyl]isoindolin-1-one fumarate]
52	O=C1c2ccccc2CN1CC1CCN(CCOc2ccccc2F)CC1 [Example 117, 2-[[1-[2-(2-Fluorophenoxy)ethyl]piperidin-4-yl]methyl]isoindolin-1-one fumarate]
62	COc1ccccc1CCN1CCC(CN2Cc3cc(Br)ccc3C2=O)CC1 [Example 167, 2-[1-[2-(2-Methoxyphenyl)ethyl]piperidin-4-ylmethyl]-5-bromoisoindolin-1-one hydrochloride]
51	O=C1c2ccccc2CN1CC1CCN(CCOc2ccccc2)CC1 [Example 114, 2-[[1-(2-Phenoxyethyl)piperidin-4-yl]methyl]isoindolin-1-one fumarate]
